Assay results as given in ChEMBL document CHEMBL1143796, “Synthesis and antimicrobial activity of 1-(4-aryl-2-thiazolyl)-3-(2-thienyl)-5-aryl-2-pyrazoline derivatives” (2007).
Converted amounts (≈) assume the structure as drawn.

Columns and labels:
[1] = system: Staphylococcus aureus; experiment: Antibacterial activity against Staphylococcus aureus NRRL B767 by micro-broth dilution method; type: functional
[2] = system: Escherichia coli; experiment: Antibacterial activity against Escherichia coli NRRL B3704 by microbroth dilution method; type: functional
[3] = system: Aeromonas hydrophila; experiment: Antibacterial activity against Aeromonas hydrophila by micro-broth dilution method; type: functional
[4] = system: Nakaseomyces glabratus; experiment: Antifungal activity against Candida glabrata by broth dilution antifungal susceptibility testing; type: functional
[5] = system: Enterococcus faecalis; experiment: Antibacterial activity against Streptococcus faecalis NRRL B14617 by micro-broth dilution method; type: functional
[6] = system: Salmonella typhimurium; experiment: Antibacterial activity against Salmonella Typhimurium NRRL B4420 by microbroth dilution method; type: functional, Salmonella enterica subsp. enterica serovar Typhimurium; details: Salmonella enterica
[7] = system: Candida albicans; experiment: Antifungal activity against Candida albicans by micro-broth dilution method; type: functional
[8] = system: Bacillus cereus; experiment: Antibacterial activity against Bacillus cereus NRRL B3711 by micro-broth dilution method; type: functional

Compound | MIC [1] [µg/mL] | MIC [2] [µg/mL] | MIC [3] [µg/mL] | MIC [4] [µg/mL] | MIC [5] [µg/mL] | MIC [6] [µg/mL] | MIC [7] [µg/mL] | MIC [8] [µg/mL]
O=[N+]([O-])c1ccc(-c2csc(N3N=C(c4cccs4)CC3c3cccnc3)n2)cc1 (stereo not given) | 31.2 (≈ 72.1 µM) | 250 (≈ 577 µM) | 31.2 (≈ 72.1 µM) | 62.5 (≈ 144 µM) | 125 (≈ 288 µM) | 125 (≈ 288 µM) | 62.5 (≈ 144 µM) | 125 (≈ 288 µM)
c1ccc(-c2csc(N3N=C(c4cccs4)CC3c3ccccn3)n2)cc1 (stereo not given) | 250 (≈ 643 µM) | 125 (≈ 322 µM) | 62.5 (≈ 161 µM) | 62.5 (≈ 161 µM) | 250 (≈ 643 µM) | 125 (≈ 322 µM) | 62.5 (≈ 161 µM) | 250 (≈ 643 µM)
COc1ccc(-c2csc(N3N=C(c4cccs4)CC3c3ccccn3)n2)cc1 (stereo not given) | 125 (≈ 299 µM) | 125 (≈ 299 µM) | 62.5 (≈ 149 µM) | 62.5 (≈ 149 µM) | 250 (≈ 597 µM) | 125 (≈ 299 µM) | 62.5 (≈ 149 µM) | 250 (≈ 597 µM)
Clc1ccc(-c2csc(N3N=C(c4cccs4)CC3c3ccccn3)n2)cc1 (stereo not given) | 250 (≈ 591 µM) | 125 (≈ 296 µM) | 125 (≈ 296 µM) | 125 (≈ 296 µM) | 250 (≈ 591 µM) | 250 (≈ 591 µM) | 125 (≈ 296 µM) | 250 (≈ 591 µM)
O=[N+]([O-])c1ccc(-c2csc(N3N=C(c4cccs4)CC3c3ccccn3)n2)cc1 (stereo not given) | 250 (≈ 577 µM) | 125 (≈ 288 µM) | 125 (≈ 288 µM) | 125 (≈ 288 µM) | 500 (≈ 1150 µM) | 250 (≈ 577 µM) | 125 (≈ 288 µM) | 500 (≈ 1150 µM)
O=[N+]([O-])c1ccc(-c2csc(N3N=C(c4cccs4)CC3c3ccncc3)n2)cc1 (stereo not given) | 125 (≈ 288 µM) | 125 (≈ 288 µM) | 125 (≈ 288 µM) | 125 (≈ 288 µM) | 250 (≈ 577 µM) | 125 (≈ 288 µM) | 125 (≈ 288 µM) | 62.5 (≈ 144 µM)
Cc1ccc(-c2csc(N3N=C(c4cccs4)CC3c3cccnc3)n2)cc1 (stereo not given) | 125 (≈ 311 µM) | 250 (≈ 621 µM) | 250 (≈ 621 µM) | 125 (≈ 311 µM) | 250 (≈ 621 µM) | 125 (≈ 311 µM) | 125 (≈ 311 µM) | 250 (≈ 621 µM)
Cc1ccc(-c2csc(N3N=C(c4cccs4)CC3c3ccncc3)n2)cc1 (stereo not given) | 125 (≈ 311 µM) | 250 (≈ 621 µM) | 125 (≈ 311 µM) | 125 (≈ 311 µM) | 250 (≈ 621 µM) | 125 (≈ 311 µM) | 125 (≈ 311 µM) | 62.5 (≈ 155 µM)
COc1ccc(-c2csc(N3N=C(c4cccs4)CC3c3ccncc3)n2)cc1 (stereo not given) | 125 (≈ 299 µM) | 125 (≈ 299 µM) | 125 (≈ 299 µM) | 62.5 (≈ 149 µM) | 250 (≈ 597 µM) | 125 (≈ 299 µM) | 62.5 (≈ 149 µM) | 62.5 (≈ 149 µM)
c1ccc(-c2csc(N3N=C(c4cccs4)CC3c3cccnc3)n2)cc1 (stereo not given) | 125 (≈ 322 µM) | 250 (≈ 643 µM) | 250 (≈ 643 µM) | 250 (≈ 643 µM) | 250 (≈ 643 µM) | 250 (≈ 643 µM) | 250 (≈ 643 µM) | 250 (≈ 643 µM)
COc1ccc(-c2csc(N3N=C(c4cccs4)CC3c3cccnc3)n2)cc1 (stereo not given) | 250 (≈ 597 µM) | 250 (≈ 597 µM) | 125 (≈ 299 µM) | 125 (≈ 299 µM) | 250 (≈ 597 µM) | 125 (≈ 299 µM) | 125 (≈ 299 µM) | 250 (≈ 597 µM)
Clc1ccc(-c2csc(N3N=C(c4cccs4)CC3c3cccnc3)n2)cc1 (stereo not given) | 250 (≈ 591 µM) | 250 (≈ 591 µM) | 250 (≈ 591 µM) | 250 (≈ 591 µM) | 125 (≈ 296 µM) | 250 (≈ 591 µM) | 250 (≈ 591 µM) | 125 (≈ 296 µM)
Clc1ccc(-c2csc(N3N=C(c4cccs4)CC3c3ccncc3)n2)cc1 (stereo not given) | 62.5 (≈ 148 µM) | 125 (≈ 296 µM) | 62.5 (≈ 148 µM) | 62.5 (≈ 148 µM) | 62.5 (≈ 148 µM) | 62.5 (≈ 148 µM) | 125 (≈ 296 µM) | 62.5 (≈ 148 µM)
c1ccc(-c2csc(N3N=C(c4cccs4)CC3c3ccncc3)n2)cc1 (stereo not given) | 15.6 (≈ 40.2 µM) | 250 (≈ 643 µM) | 31.2 (≈ 80.4 µM) | 250 (≈ 643 µM) | 31.2 (≈ 80.4 µM) | 62.5 (≈ 161 µM) | 250 (≈ 643 µM) | 31.2 (≈ 80.4 µM)
Cc1ccc(-c2csc(N3N=C(c4cccs4)CC3c3ccccn3)n2)cc1 (stereo not given) | 250 (≈ 621 µM) | 125 (≈ 311 µM) | 62.5 (≈ 155 µM) | 62.5 (≈ 155 µM) | 250 (≈ 621 µM) | 125 (≈ 311 µM) | 62.5 (≈ 155 µM) | 250 (≈ 621 µM)
